# According to ChEMBL document CHEMBL4619822, “Novel Cyclic Tetramer Compounds as PCSK9 Inhibitors for Treating Metabolic Disorders” (ACS Med Chem Lett, 2020):
# Biological target: Proprotein convertase subtilisin/kexin type 9 (Homo sapiens) (UniProt Q8NBP7)
# Assay: Inhibition of human PCSK9 by Alexa Fluor 647 staining based TR-FRET assay relative to control
# Chain of Proprotein convertase subtilisin/kexin type 9 (Homo sapiens) (Q8NBP7 31-152 limits assumed): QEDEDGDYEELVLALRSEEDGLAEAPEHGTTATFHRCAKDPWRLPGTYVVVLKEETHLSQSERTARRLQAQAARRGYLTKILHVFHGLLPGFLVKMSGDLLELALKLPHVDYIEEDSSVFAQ
# Chain of Proprotein convertase subtilisin/kexin type 9 (Homo sapiens) (Q8NBP7 153-692 limits assumed): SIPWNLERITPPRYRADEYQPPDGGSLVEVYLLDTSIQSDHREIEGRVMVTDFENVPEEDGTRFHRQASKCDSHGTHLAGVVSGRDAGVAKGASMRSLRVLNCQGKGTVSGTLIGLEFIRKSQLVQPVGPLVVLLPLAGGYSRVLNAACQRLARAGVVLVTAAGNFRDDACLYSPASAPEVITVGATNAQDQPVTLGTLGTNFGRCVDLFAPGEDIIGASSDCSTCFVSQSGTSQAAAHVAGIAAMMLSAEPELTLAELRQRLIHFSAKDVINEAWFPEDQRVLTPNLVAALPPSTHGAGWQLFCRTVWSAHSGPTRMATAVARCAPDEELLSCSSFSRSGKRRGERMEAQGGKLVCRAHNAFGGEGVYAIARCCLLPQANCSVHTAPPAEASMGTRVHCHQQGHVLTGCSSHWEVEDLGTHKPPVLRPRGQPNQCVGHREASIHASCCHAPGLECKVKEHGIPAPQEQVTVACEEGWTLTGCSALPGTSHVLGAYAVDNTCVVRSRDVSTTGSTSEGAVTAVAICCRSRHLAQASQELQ
row,Structure (SMILES),Imax [%]
1,CNCc1ncc(-c2ccc(Oc3cc(Cl)ccc3CN3C(=O)C[C@@H](Cc4ccccc4)C(=O)N4CCC[C@@](Cc5ccc(Cl)cc5)(C4)NC(=O)[C@H](CO)NC(=O)[C@@H]3C)cc2)n1C,105
2,C[C@H]1C(=O)N[C@@H](CO)C(=O)N[C@@]2(Cc3ccc(Cl)cc3)CCCN(C2)C(=O)[C@H](Cc2ccccc2)CC(=O)N1Cc1ccc(Cl)c(F)c1Oc1ccc(-c2cnc(CN(C)C)n2C)cc1,101
3,COC[C@@H]1NC(=O)[C@H](C)N(Cc2ncc(Cl)cc2Oc2ccc(-c3cnc(CN(C)C)n3C)cc2)C(=O)C[C@@H](Cc2ccccc2)C(=O)N2CCC[C@@](Cc3ccc(Cl)cc3)(C2)NC1=O,103

# Results, then the molecule that gave them:
row,Imax [%],Structure (SMILES)
1,100,C[C@H]1C(=O)N[C@@H](CO)C(=O)N[C@@]2(Cc3ccc(Cl)cc3)CCCN(C2)C(=O)[C@H](CC2CC2)CC(=O)N1Cc1c(F)cc(Cl)cc1Oc1ccc(-c2cnc(CNC3CCC3)n2C)cc1
2,113,COC[C@@H]1NC(=O)[C@H](C)N(Cc2ccc(Cl)cc2Oc2ccc(-c3cnc(CN(C)C)n3C)nc2)C(=O)C[C@@H](CC(F)(F)F)C(=O)N2CCC[C@@](Cc3ccc(Cl)cc3)(C2)N(C)C1=O
3,105,CNCc1ncc(-c2ccc(Oc3cc(Cl)cc(F)c3CN3C(=O)C[C@@H](CC(F)(F)F)C(=O)N4CCC[C@@](Cc5ccc(Cl)cc5)(C4)N(C)C(=O)[C@H](COC)NC(=O)[C@@H]3C)cc2)n1C
